In US20070004692A1, “Preparations and therapy of intrathecal inflammatory disease” (priority 2005, published 2007):
Values after ≈ are worked out from the molar mass of the structure shown. Marks after values point to notes of the source that are not given here.

Tests used:
physchem = conditions: water
[1] = Physical stability of aqueous corticosteroid solutions (ethanol stock added to saline or x-ray contrast agent)
[2] = system: focal cerebral ischemia (middle cerebral artery occlusion); assay: Focal cerebral ischemia, intraluminal suture occlusion of the middle cerebral artery (MCAO); relative infarction volume by TTC staining; type: in vivo; conditions: for Relative infarction volume expressed as percent of the total brain volume of the right hemisphere, mean: 0.012 mg/kg intrathecal single dose (example 3), control 18.08, n 15
[3] = Blood glucose with glucose oxidase reagent strips in the MCAO animals of Example 5; conditions: intrathecal 0.012 mg/kg; venous blood preoperatively, prior to, 2 h and 24 h after administration; versus saline control (FIG. 1)
Description: In the animals used in ‘Example 5’ additionally blood glucose was measured with glucose oxidase reagent strips (Accu-Chek® Sensor, Roche Diagnostik GmbH, Mannheim, Germany) using a drop of venous blood preoperatively, immediately prior to, at 2 hours and at 24 hours after Triamcinolone acetonide administration.

[4] = Solubility in water at room temperature
[5] = Isovist 300, time after mixing 0

| SMILES | solubility (physchem) [µg/mL] | Physical stability (appearance) ([1]; Isovist 300, 2 h after mixing) | Physical stability (appearance) ([1]; Isovist 300, 48 h after mixing) | Physical stability (appearance) [1, 5] | Physical stability (appearance) ([1]; Saline, 2 h after mixing) | Physical stability (appearance) ([1]; Saline, time after mixing 0) | Physical stability (appearance) ([1]; Ultravist 300, 2 h after mixing) | Physical stability (appearance) ([1]; Ultravist 300, 48 h after mixing) | Physical stability (appearance) ([1]; Ultravist 300, time after mixing 0) | Relative infarction volume expressed as percent of the total brain volume of the right hemisphere, mean ([2]; drug administration 30 Min after MCAO) | Relative infarction volume expressed as percent of the total brain volume of the right hemisphere, mean ([2]; drug administration 1 h after MCAO) | Relative infarction volume expressed as percent of the total brain volume of the right hemisphere, mean ([2]; drug administration 2 h after MCAO) | Relative infarction volume expressed as percent of the total brain volume of the right hemisphere, mean ([2]; drug administration 4 h after MCAO) | reduction in infarction size compared to controls ([2]; 0.012 mg/kg intrathecally, preparation of example 2, 30 minutes after MCA occlusion) [%] | infarction volume (percent of the total brain volume of the right hemisphere) ([2]; 0.012 mg/kg intrathecally, preparation of example 2, 30 minutes after MCA occlusion, sacrificed 24 h after MCAO, controls 20.0±8.0%, p=0.02) [%] | effect on blood glucose [3] | solubility [4] [µg/mL] | Physical stability (appearance) ([1]; Ultravist 370, 2 h after mixing) | Physical stability (appearance) ([1]; Ultravist 370, 48 h after mixing) | Physical stability (appearance) ([1]; Ultravist 370, time after mixing 0) |
| --- | --- | --- | --- | --- | --- | --- | --- | --- | --- | --- | --- | --- | --- | --- | --- | --- | --- | --- | --- | --- |
| C[C@@H]1C[C@H]2[C@@H]3CCC4=CC(=O)C=C[C@]4(C)[C@@]3(F)[C@@H](O)C[C@]2(C)[C@@]1(O)C(=O)CO [Dexamethasone, dexamethasone] | ~85 (≈ 217 µM) | clear | clear | clear | clear | clear | clear | clear | clear | – | – | – | – | – | – | – | – | – | – | – |
| CC1(C)O[C@@H]2C[C@H]3[C@@H]4CCC5=CC(=O)C=C[C@]5(C)[C@@]4(F)[C@@H](O)C[C@]3(C)[C@]2(C(=O)CO)O1 [Triamcinolone acetonide] | – | clear | fine particles | clear | – | clear (?) | – | – | – | 12.86* percent | 9.68** percent | 10.57* percent | 9.05** percent | 33 | 13.4±6.5 | does not cause any additional effect | ~20 (≈ 46 µM) | clear | clear | clear |
